Read-outs that look alike come from different tables or passages of the source.
What was measured:
Format in all cases: cell-based
[1] = target: T1, PPAR Gamma (Homo sapiens, UniProt P37231); experiment: PathHunter NHR protein interaction / nuclear translocation agonist test, PPAR Gamma; conditions: for Emax: read-out: PPAR Gamma Maximum Activation Response %
T1 sequence (P37231 1-505): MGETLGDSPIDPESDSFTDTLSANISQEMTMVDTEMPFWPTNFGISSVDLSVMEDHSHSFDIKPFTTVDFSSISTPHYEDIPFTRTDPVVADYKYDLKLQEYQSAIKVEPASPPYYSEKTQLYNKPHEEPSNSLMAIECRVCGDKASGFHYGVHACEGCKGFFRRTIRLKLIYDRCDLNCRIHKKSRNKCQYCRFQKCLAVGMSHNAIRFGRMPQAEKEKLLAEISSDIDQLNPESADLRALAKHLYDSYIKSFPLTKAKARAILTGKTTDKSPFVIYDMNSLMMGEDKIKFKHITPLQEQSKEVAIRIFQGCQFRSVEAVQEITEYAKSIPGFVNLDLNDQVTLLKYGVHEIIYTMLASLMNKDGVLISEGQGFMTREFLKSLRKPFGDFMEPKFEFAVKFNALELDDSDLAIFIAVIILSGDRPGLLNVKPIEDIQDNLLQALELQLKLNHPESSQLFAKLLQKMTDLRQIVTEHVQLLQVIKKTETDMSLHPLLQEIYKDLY

[2] = target: T2, PPAR Delta (Homo sapiens, UniProt Q03181); experiment: PathHunter NHR protein interaction / nuclear translocation agonist test, PPAR Delta; conditions: for EC50: agonist mode, read-out: PPAR Delta EC50; for Emax: read-out: PPAR Delta Maximum Activation Response %
T2 sequence (Q03181 1-441): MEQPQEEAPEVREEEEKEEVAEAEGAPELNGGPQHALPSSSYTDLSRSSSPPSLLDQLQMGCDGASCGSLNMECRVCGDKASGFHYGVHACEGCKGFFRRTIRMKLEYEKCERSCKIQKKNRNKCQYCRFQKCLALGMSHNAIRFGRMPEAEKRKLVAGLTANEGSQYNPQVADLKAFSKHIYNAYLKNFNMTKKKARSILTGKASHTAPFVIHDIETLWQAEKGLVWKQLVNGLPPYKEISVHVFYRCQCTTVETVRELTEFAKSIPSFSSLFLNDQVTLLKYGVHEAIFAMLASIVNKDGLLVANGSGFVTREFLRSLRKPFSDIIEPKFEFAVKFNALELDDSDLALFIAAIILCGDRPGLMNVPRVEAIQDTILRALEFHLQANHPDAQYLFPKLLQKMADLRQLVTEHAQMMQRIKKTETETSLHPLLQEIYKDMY

[3] = target: T3, PPAR Alpha (Homo sapiens, UniProt Q07869); experiment: PathHunter NHR protein interaction / nuclear translocation agonist test, PPAR Alpha; conditions: for Emax: read-out: PPAR Alpha Maximum Activation Response %
T3 sequence (Q07869 1-468): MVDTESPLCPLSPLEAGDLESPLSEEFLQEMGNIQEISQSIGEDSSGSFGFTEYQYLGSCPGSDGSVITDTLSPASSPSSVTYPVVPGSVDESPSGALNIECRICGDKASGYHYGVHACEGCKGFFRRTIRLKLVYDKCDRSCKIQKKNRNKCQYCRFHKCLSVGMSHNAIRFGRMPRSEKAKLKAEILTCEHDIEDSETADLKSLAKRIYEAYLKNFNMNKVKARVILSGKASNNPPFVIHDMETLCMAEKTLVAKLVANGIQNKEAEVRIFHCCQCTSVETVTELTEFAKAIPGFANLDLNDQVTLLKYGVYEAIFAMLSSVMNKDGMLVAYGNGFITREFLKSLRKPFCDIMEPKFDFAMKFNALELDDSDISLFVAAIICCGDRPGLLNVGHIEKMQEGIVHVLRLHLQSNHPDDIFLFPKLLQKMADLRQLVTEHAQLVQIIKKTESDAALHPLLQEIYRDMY

[4] = agonist mode, read-out: PPAR Gamma EC50
[5] = agonist mode, read-out: PPAR Alpha EC50

Compound	EC50 ([1]; PPAR Gamma EC50 nM) [nM]	EC50 [2] [µM]	Emax [2] [%]	EC50 ([3]; PPAR Alpha EC50 nM) [nM]	EC50 [1, 4] [nM]	Emax [1] [%]	EC50 [3, 5] [nM]	Emax [3] [%]
CSc1ccc(C(=O)C2CN(C(=O)Oc3ccccc3)CC2Cc2cc(C)c(OC(C)(C)C(=O)O)c(C)c2)cc1 (stereo not drawn) [Compound 26]	> 250	< 0.1	50 to 80	< 100				
CSc1ccc(C(=O)C2CN(C(=O)Oc3ccc(Br)cc3)CC2c2cc(C)c(OC(C)(C)C(=O)O)c(C)c2)cc1 (stereo not drawn) [Compound 46]		< 0.1	80 to 100		> 250	80 to 100	< 100	80 to 100
CSc1ccc(C(=O)/C=C/c2cc(C)c(OC(C)(C)C(=O)O)c(C)c2)cc1 [GFT-505, Elafibranor, reference compound]			50 to 80		> 250	50 to 80	> 250	80 to 100
